Source: patent US11084795B2, “CFTR regulators and methods of use thereof” (The Regents of the University of California, priority 2015, dated 2021)
“Also recorded” adds a separate entry of the source.

Assays:
cellular cAMP = assay: GloSensor cAMP assay in FRT cells; format: cell-based, rat; conditions: 5 μM compound, 10 min, without or with 100 nM forskolin
Protocol: Intracellular cAMP activity was measured using a GloSensor luminescence assay (Promega Corp., Madison, Wisconson, USA). FRT null cells were stably transfected with the pGloSensor cAMP plasmid and plated onto white 96-well microplates and grown to confluence. Cells were washed three times with PBS and incubated with 5 μM CFTRact-J027 for 10 min in the absence and presence of 100 nM forskolin. cAMP was assayed according to the manufacturer's instructions.
Intracellular cAMP activity was measured using a GloSensor luminescence assay (Promega Corp., Madison, Wis., USA). FRT cells stably transfected with the pGloSensor cAMP plasmid (Promega Corp.) were cultured in white 96-well microplates (Corning Costar) overnight. Cells were then washed three times with PBS and incubated with 5 μM test compound for 10 min in the absence and presence of 100 nM forskolin.
cAMP assay. Intracellular cAMP activity was measured using a GloSensor luminescence assay (Promega Corp., Madison, Wisconson, USA). FRT null cells were stably transfected with the pGloSensor cAMP plasmid and plated onto white 96-well microplates and grown to confluence. […]
cAMP and cytotoxicity assays. Intracellular cAMP activity was measured using a GloSensor luminescence assay (Promega Corp., Madison, Wis., USA). […]

whole-gut transit = assay: Whole-gut transit time in mice; format: in vivo, mouse
Protocol: Whole-gut transit time was determined using an orally administered marker (200 μL, 5% Evans Blue, 5% gum Arabic) and measuring the time of its appearance in stool. Mice were administered loperamide and CFTRact-J027 (10 mg/kg) or vehicle intraperitoneally at zero time. For ex vivo contractility measurements, mice were euthanized by avertin overdose (200 mg/kg, 2,2,2-tribromethanol, Sigma-Aldrich) and ileum and colon segments of ˜2 cm length were isolated and washed with Krebs-Henseleit buffer. The ends of the intestinal segments were tied, connected to a force transducer (Biopac Systems, Goleta, Calif., USA) and tissues were transferred to an organ chamber (Biopac Systems) containing Krebs-Henseleit buffer at 37° C. aerated with 95% O2, 5% CO2. Ileum and colon were stabilized for 60 min with resting tensions of 0.5 and 0.2 g respectively, and solutions were changed every 15 min. Effects of CFTRact-J027 on baseline and loperamide-suppressed isometric intestinal contractions were recorded.
In vivo intestinal transit and ex vivo intestinal contractility. Whole-gut transit time was determined using an orally administered marker (200 μL, 5% Evans Blue, 5% gum Arabic) and measuring the time of its appearance in stool. […] Effects of CFTRact-J027 on baseline and loperamide-suppressed isometric intestinal contractions were recorded.

[1] = In vitro metabolic stability in mouse liver microsomes; format: in vitro ADME; conditions: NADPH
Protocol: (§1) CFTRact-J027 (5 μM) was incubated for specified times at 37° C. with mouse liver microsomes (1 mg protein/ml; Sigma-Aldrich) in potassium phosphate buffer (100 mM) containing 1 mM NADPH, as described. The mixture was then chilled on ice, and 0.5 ml of ice-cold ethyl acetate was added. Samples were centrifuged for 15 min at 3000 rpm, the supernatant evaporated to dryness, and the residue was dissolved in 100 μL mobile phase (acetonitrile:water, 3:1) for LC/MS and assayed as described above.
as §1, with “In vitro metabolic stability. CFTRact-J027” for “CFTRact-J027”
In vitro metabolic stability. Test compound (at 5 μM) was incubated for specified times at 37° C. with mouse liver microsomes (1 mg protein/ml; Sigma-Aldrich, St. Louis, Mo.) in potassium phosphate buffer containing 1 mM NADPH, as described. Following ethyl acetate extraction, non-metabolized parent compound was assayed by LC/MS.

Nc1ccc([N+](=O)[O-])cc1-c1nc2ccccc2n(Cc2ccccc2)c1=O [CFTRact-J027, 3-(2-amino-5-nitrophenyl)-1-benzylquinoxalin-2(1H)-one]
effect on cellular cAMP (cellular cAMP): without causing elevation of cytoplasmic cAMP; also recorded: does not elevate cellular cAMP
whole-gut transit time in cystic fibrosis mice (whole-gut transit; cystic fibrosis mice): no effect on whole-gut transit time
whole-gut transit time (whole-gut transit; loperamide-treated wild-type mice, 10 mg/kg ip): normalized
compound metabolized at 60 min ([1]; mouse hepatic microsomes): ~100%
original compound remaining at 60 min ([1]; mouse liver microsomes): 7%
half-life at 5 μM ([1]; mouse, liver microsomes, 5 μM, read-out: elimination half-life in mouse liver microsomes): 21 min
